Results published in patent US5179107A, “Antiviral quinolinone compounds” (Schering Corporation, priority 1991, dated 1993).
Several values for one entry are separate records, joined by “and”; a condition that tells them apart may be missing. Identical values can stand only once. Like-named read-outs stand apart in the source and are kept apart here.

Tests used:
[1] = tested on: HSV-2 (strain MS); assay: HSV-β-GAL assay: transient expression of beta galactosidase in pON 245^ori- transfected HeLa cells infected with HSV-2; assay type: cell-based; conditions: multiple numbers = additional tests; for IC50: Human alphaherpesvirus 2, HeLa, 24 h
Description: (§1) HeLa and Vero cell cultures were maintained in Eagles Minimal Essential Medium which was supplemented with glutamine, penicillin, streptomycin and 10% fetal calf serum (10% EMEM). Stock cultures of HSV-2 (strain MS available from ATCC VR-540) were grown in and harvested from Vero cells. Viral stocks were titered in Vero cells according to established procedures.
Plasmid pON 245^ori- contains the promoter of the HSV-1 thymidine kinase (tk) gene located immediately 5' of the E. coli lac Z gene. In this arrangement, the tk promoter controls transcription from the bacterial gene in transient expression assays. Additionally, an SV40 polyadenylation signal is present at the 3' end of the lac Z gene to allow for the efficient translation of the mRNA in eucaryotic cells. The expression of beta galactosidase in a transient assay using pON 245^ori- is dependent upon superinfection of the transfected cells with HSV. […] For example, see U.S. application Ser. No. 07/435,491 filed Sep. 5, 1989, the disclosure of which is incorporated herein by reference thereto.
HeLa cells were seeded into 96 well microtiter plates and allowed to grow to 80% confluency (approximately 35000 cells/well). One half microgram of plasmid pON 245^ori- DNA was introduced into the cells of each well by the […] precipitation technique (Grahman and Van der Eb, 1973). Four to six hours later, the cells were rinsed with Hank's Balanced Salt Solution (HBSS), overlaid with 10% EMEM and incubated at 37° C. At 24 hrs post-transfection, cells were rinsed, overlaid with 10% EMEM again and re-incubated at 37° C. At 48 hrs. post-transfection, cells were rinsed and overlaid with either EMEM containing 2% fetal calf serum (2% EMEM), 2% EMEM containing HSV-2 (strain MS, Multiplicity of infection [moi]=5 pfu/cell) or 2% EMEM containing HSV-2 and the appropriate concentration of the compound to be tested. Twenty-four hrs later, the cells were harvested and assayed for beta galactosidase activity as described below.
(§2) All determinations of beta galactosidase activity were performed in 96 well microtiter plates. The intracellular level of beta galactosidase activity in each well was determined from cell lysates of the monolayer cultures. […] The generation of fluorescent product was quantified on a Microfluor microfluorimeter (Dynatech) after addition of 0.1M glycine, pH 10.3 (Spaete and Mocarski, 1985). The inhibitory activity of a compound was plotted versus the concentration and an IC50 value (the concentration of compound required to reduce beta glactosidase expression by 50%) was obtained for each compound tested.
The in-vitro anti-HSV activity of compounds of this invention is set forth in Table I. More than one number for a particular entry indicates the results for additional tests.

[2] = tested on: HSV-2, strain MS; assay: Prophylactic guinea pig model of HSV infection (genital lesions, Maximum Lesion scores); assay type: in vivo; conditions: subcutaneous, 60 mg per kg, every eight hours for 10 days, from 24 hrs prior to infection
Description: The in vivo assessment of anti-HSV efficacy was determined in the prophylactic guinea pig model of HSV infection described by Stansberry et al (1982). Dosing of guinea pigs was comprised of an initial treatment with test compound given 24 hrs prior to virus infection and subsequent administration of the compound every eight hours (T.I.D.) for a total of 10 days. Test compounds were administered subcutaneously in 0.5% buffered methyl cellulose at a dose of 60 mg per kg body weight of the animal. Animals were monitored daily for the developement of genital lesions and neurological symptomology, both of which were recorded and compared to the results obtained with parallel groups which received placebo or acyclovir treatment. Efficacy was evaluated for each compound by scoring the ability of the compound to ameliorate genital lesions produced by infection with HSV-2, strain MS, expressed as Maximum Lesion scores (MLS) on a scale of 1 (least lesions) to 4 (severe lesions).

[3] = CMV toxicity assay, ^3 H-LEU assay in HFF cells; assay type: cell-based; conditions: human, read-out: CYTOTOXICITY ^3 H-LEU ASSAY IC50 (CMV toxicity assay)
[4] = Cytotoxicity, ^3 H-LEU assay (HeLa cell translation); assay type: cell-based; conditions: human, hela cells, inhibition of cellular translational activity, overnight/24 hrs incubation, read-out: CYTOTOXICITY ^3 H-LEU ASSAY IC50
Description: as §1
(§3) HeLa cells were treated with inhibitory compound for 24 hrs, after which levels of translational activity were assayed.
(§4) For assay of translational activity, HeLa cultures were grown to 80% confluency in 96 well microtiter plates, treated with appropriate concentrations of compound in 2% EMEM during an overnight incubation at 37° C., then rinsed with HBSS and overlaid with […] of 2% EMEM containing 8 uCi of tritiated leucine (^3 H-LEU, […], Amersham Corp., Arlington Heights Ill.). After a 1 hr incubation at 36.5° C., the cells were rinsed twice with phosphate buffered saline (PBS) and lysed in 400 ul/well of 1×PBS, 0.5% sodium dodecyl sulphate (SDS). After a 10 min incubation at 36.5° C., the contents of the well were transferred to a well in a Millititer HA microfiltration plate (Millipore Corp., Bedford, Mass.). The TCA insoluble proteins were precipitated onto the filter disc by a 10 min fixation with 5% TCA, followed by filtration under vacuum and three 10 minute rinses with 95% ethanol. The filters were dried at room temperature, cut from the milltitier plate and transferred to scintillation vials. TCA precipitable counts were assayed in 5 ml of Scintisol (Isolab, Akron, Ohio). The inhibitory activity of a compound was plotted versus the concentration and an IC50 value (that concentration of the compound required to decrease cellular translational activity by 50%) was derived for each compound.

[5] = tested on: CMV (strain Towne); assay: CMV-β-Gal assay: transient expression of beta galactosidase, plasmid pON249 ΔNH3, in human foreskin fibroblasts; assay type: cell-based; conditions: multiple numbers = additional tests; for ANTI-CMV ACTIVITY CMV-β-Gal ASSAY IC50: CMV strain Towne, human foreskin fibroblasts; for IC50: Human betaherpesvirus 5, Fibroblast, read-out: ANTI-CMV ACTIVITY CMV-β-Gal ASSAY IC50, CMV strain Towne, human foreskin fibroblasts
Description: as §2
The in-vitro CMV activity of the compounds represented by Formulas 1.1 and 1.3 were determined using the following CMV assay.
Human foreskin fibroblast (HHF) cell cultures were grown in 10% EMEM. CMV (strain Towne received from Stanford University) was grown and titered in HHF cells. Plasmids pON249 ΔNH3, containing CMV promoter genes, were used in the β-galactosidase transient expression assay as shown above.
More than one number for a particular entry indicates the results of additional tests.

[6] = tested on: HeLa cells; assay: Cytotoxicity, ^3 H-LEU assay (HeLa cell translation); assay type: cell-based; conditions: inhibition of cellular translational activity, overnight/24 hrs incubation, 1440 min
Description: as §1, §3, §4

[7] = tested on: HSV; conditions: added to lidocaine or lidocaine hydrochloride; U.S. Pat. No. 4,757,088; cited from earlier work
[8] = tested on: HSV-2; conditions: U.S. Pat. No. 4,757,088; cited from earlier work
[9] = tested on: HSV; conditions: U.S. Pat. No. 4,757,088; cited from earlier work
[10] = tested on: HSV-1; conditions: U.S. Pat. No. 4,757,088; cited from earlier work
[11] = tested on: herpes virus; conditions: U.S. Pat. No. 4,757,088; cited from earlier work
[12] = HSV-2 strain MS, moi 5 pfu/cell, HeLa cells, 24 hrs, read-out: ANTI-HSV ACTIVITY HSV-β-GAL ASSAY IC50

SMILES | CC50 at 24 h [4] [µg/mL] | IC50 [1, 12] [µg/mL] | other results
Cn1c(=O)c(O)c(O)c2ccccc21 [Formula 1.1] | 21 |  | IC50 ([1]; read-out: ANTI-HSV ACTIVITY HSV-β-GAL ASSAY IC50, HSV-2 strain MS, moi 5 pfu/cell, HeLa cells, 24 hrs): < 3 µg/mL; In-vivo anti-HSV activity [2]: inactive; CC50 [3]: 36 µg/mL; ANTI-CMV ACTIVITY CMV-β-Gal ASSAY IC50 [5]: 1 µg/mL; IC50 [5]: 1.5 µg/mL
O=c1c(O)c(O)c2ccccc2n1Cc1ccccc1 [Formula 1.2] | 32 |  | 
CCCCCCCn1c(=O)c(O)c(O)c2ccccc21 [Formula 1.3] | 37 | < 3 | ANTI-HSV ACTIVITY HSV-β-GAL ASSAY IC50 ([1]; HSV-2 strain MS, moi 5 pfu/cell, HeLa cells, 24 hrs): 2 µg/mL and 3 µg/mL; CC50 [3]: 25 µg/mL; CYTOTOXICITY ^3 H-LEU ASSAY IC50 [6]: 30 µg/mL; ANTI-CMV ACTIVITY CMV-β-Gal ASSAY IC50 [5]: 9 µg/mL; IC50 [5]: 13 µg/mL
Cn1cccc1C(=O)Oc1c(OC(=O)c2cccn2C)c2ccccc2n(C)c1=O [Formula 1.4] | > 100 |  | 
Cn1c(=O)c(OC(=O)c2ccc[nH]2)c(OC(=O)c2ccc[nH]2)c2ccccc21 [Formula 1.5] | 28 |  | 
O=c1c(O)c(O)c2ccccc2n1-c1ccccc1 [Formula 1.6] | 8 | 9 | 
Cn1c(=O)c(OC(=O)c2ccc(Br)o2)c(OC(=O)c2ccc(Br)o2)c2ccccc21 [Formula 1.7] | > 50 | 10 | 
Cn1c(=O)c(OC(=O)c2cccs2)c(OC(=O)c2cccs2)c2ccccc21 [Formula 1.8] | > 50 | 19 | 
Cn1c(=O)c(OC(=O)c2ccccc2)c(OC(=O)c2ccccc2)c2ccccc21 [Formula 1.9] | 58 | 20 | 
CCC(=O)Oc1c(OC(=O)CC)c2ccccc2n(C)c1=O [Formula 1.10] | 34 | 17 | 
COc1c(OC)c2ccccc2n(C)c1=O [Formula 1.11] | > 100 | 25 | 
CC(C)(CO)[C@@H](O)C(=O)NCCCO [dexpanthenol] |  |  | effect of addition to lidocaine or lidocaine hydrochloride on their antiviral activity [7]: significantly enhances the antiviral activity
CCN(CC)CC(=O)Nc1c(C)cccc1C [lidocaine, 2-(diethylamino)-N-(2,6-dimethylphenyl)acetamide] |  |  | antiviral activity in cell culture against HSV-2 [8]: antiviral agent; treatment of HSV oral and genital lesions in humans [9]: particularly effective; antiviral activity in cell culture against HSV-1 [10]: antiviral agent; treatment of herpes virus infections of mammals [11]: able to treat herpes virus infections of mammals
CC(C)(CO)[C@@H](O)C(=O)NCCC(=O)O [pantothenic acid] |  |  | effect of addition to lidocaine or lidocaine hydrochloride on their antiviral activity [7]: significantly enhances the antiviral activity
